Assays:
O157 = experiment: Uptake of Rhodamine-HPMA polymers into tumour cell lines; assay type: cell-based; set-up: key: −: Uptake was determined on a relative scale; +/−: Uptake was determined on a relative scale; +: Uptake was determined on a relative scale; ++: Uptake was determined on a relative scale; +++: Uptake was determined on a relative scale; details: O157, Balb/C, Bcell Lymph; 5 hours at 37° C.
Method: (§1) Cells from various tumour cell lines were allowed to grow for 2 days on glass slides incubated in appropriate media at 37° C. in 5% CO2. […] Cells were incubated for a further 5 hours at 37° C. in 5% CO2. At this time the media was removed and uptake into the cells was assessed by fluorescent microscopy of internalization of the rhodamine fluorophore. Uptake was determined on a relative scale.

P815 tumour cells = details: mice bearing P815 tumour; 5 mg/kg Rhodamine conjugated to HPMA intraperitoneally; six hours after injection; FIG. 1
Method: For tumour accumulation studies, various strains of mice bearing a variety of tumours were injected intraperitoneally with 5 mg/kg Rhodamine conjugated to the HPMA polymers. Six hours after injection, the mice were sacrificed, their tumours removed and cryo-embedded before cryostatic sectioning. The level of accumulation of the Rhodamine-HPMA was determined by fluorescent microscopy using a Zeiss microscope equiped with Axioplan software. […] Blue staining is BisBenzamide staining of cell nuclei.

JC = experiment: Uptake of Rhodamine-HPMA polymers into tumour cell lines; assay type: cell-based; details: Balb/C, Breast, 5 hours at 37° C.
Method: as §1

L1210FR = experiment: as above; assay type: cell-based; details: DBA/2, Leukemia, 5 hours at 37° C.
Method: as §1

B16 = experiment: as above; assay type: cell-based; details: B16, C57/BI, Melanoma; 5 hours at 37° C.
Method: as §1

L1210 = experiment: as above; assay type: cell-based; details: L1210, DBA/2, Leukemia; 5 hours at 37° C.
Method: as §1

ID8 = experiment: as above; assay type: cell-based; details: ID8, C57/BI, Ovarian; 5 hours at 37° C.
Method: as §1

HCT-116 = experiment: as above; assay type: cell-based; details: HCT-116, Balb/C-Nu, Colon Carcin; 5 hours at 37° C.
Method: as §1

Colo-26 = experiment: as above; assay type: cell-based; details: Colo-26, Balb/C, Colon Carcin; 5 hours at 37° C.
Method: as §1

RENCA = experiment: as above; assay type: cell-based; details: Balb/C, Renal cell, 5 hours at 37° C.
Method: as §1

Ovcar = experiment: as above; assay type: cell-based; details: Ovarian, 5 hours at 37° C.
Method: as §1

LL-2 = experiment: as above; assay type: cell-based; details: LL-2, C57/BI, Lung; 5 hours at 37° C.
Method: as §1

M109 = experiment: as above; assay type: cell-based; details: M109, Balb/C, Lung; 5 hours at 37° C.
Method: as §1

P815 = experiment: as above; assay type: cell-based; details: P815, DBA/2, Mastocytoma; 5 hours at 37° C.
Method: as §1

MMT060562 = experiment: as above; assay type: cell-based; details: MMT060562, Balb/C, Breast; 5 hours at 37° C.
Method: as §1

Ov 2008 = experiment: as above; assay type: cell-based; details: Ov 2008, Balb/C-Nu, Ovarian; 5 hours at 37° C.
Method: as §1

BW5147 = experiment: as above; assay type: cell-based; details: BW5147, AKR/J, Lymphoma; 5 hours at 37° C.
Method: as §1

4T1 = experiment: as above; assay type: cell-based; details: 4T1, Balb/C, Breast; 5 hours at 37° C.
Method: as §1

Rhodamine-HPMA polymer
Uptake into the cells (internalization of the rhodamine fluorophore, fluorescent microscopy), relative scale (O157): +/− | Level of accumulation / polymer uptake by P815 tumour cells (fluorescent microscopy of cryostat sections) (P815 tumour cells): accumulation | Uptake into the cells (internalization of the rhodamine fluorophore, fluorescent microscopy), relative scale (JC): − | Uptake into the cells (internalization of the rhodamine fluorophore, fluorescent microscopy), relative scale (L1210FR): − | Uptake into the cells (internalization of the rhodamine fluorophore, fluorescent microscopy), relative scale (B16): − | Uptake into the cells (internalization of the rhodamine fluorophore, fluorescent microscopy), relative scale (L1210): − | Uptake into the cells (internalization of the rhodamine fluorophore, fluorescent microscopy), relative scale (ID8): − | Uptake into the cells (internalization of the rhodamine fluorophore, fluorescent microscopy), relative scale (HCT-116): + | Uptake into the cells (internalization of the rhodamine fluorophore, fluorescent microscopy), relative scale (Colo-26): − | Uptake into the cells (internalization of the rhodamine fluorophore, fluorescent microscopy), relative scale (RENCA): − | Uptake into the cells (internalization of the rhodamine fluorophore, fluorescent microscopy), relative scale (Ovcar): − | Uptake into the cells (internalization of the rhodamine fluorophore, fluorescent microscopy), relative scale (LL-2): − | Uptake into the cells (internalization of the rhodamine fluorophore, fluorescent microscopy), relative scale (M109): − | Uptake into the cells (internalization of the rhodamine fluorophore, fluorescent microscopy), relative scale (P815): − | Uptake into the cells (internalization of the rhodamine fluorophore, fluorescent microscopy), relative scale (MMT060562): − | Uptake into the cells (internalization of the rhodamine fluorophore, fluorescent microscopy), relative scale (Ov 2008): − | Uptake into the cells (internalization of the rhodamine fluorophore, fluorescent microscopy), relative scale (BW5147): +/− | Uptake into the cells (internalization of the rhodamine fluorophore, fluorescent microscopy), relative scale (4T1): −

Reference: patent publication US20060127310A1, “Amplification of biotin-mediated targeting” (priority 2002, published 2006)
